How the values were obtained:
Format in all cases: cell-based
[1] = target: T1, ODR-10 (Caenorhabditis elegans, UniProt Q18807); test: LacZ reporter assay (ONPG workup) in Cyb-KAGMM yeast expressing ODR-10; conditions: ONPG substrate
T1 construct: expressed in transfected cells; host or cells: Saccharomyces cerevisiae Cyb-KAGMM (ste2- sst2- far1- gpa1-, gpa1/odr-3 chimaera integrated)
T1 sequence (Q18807 1-339): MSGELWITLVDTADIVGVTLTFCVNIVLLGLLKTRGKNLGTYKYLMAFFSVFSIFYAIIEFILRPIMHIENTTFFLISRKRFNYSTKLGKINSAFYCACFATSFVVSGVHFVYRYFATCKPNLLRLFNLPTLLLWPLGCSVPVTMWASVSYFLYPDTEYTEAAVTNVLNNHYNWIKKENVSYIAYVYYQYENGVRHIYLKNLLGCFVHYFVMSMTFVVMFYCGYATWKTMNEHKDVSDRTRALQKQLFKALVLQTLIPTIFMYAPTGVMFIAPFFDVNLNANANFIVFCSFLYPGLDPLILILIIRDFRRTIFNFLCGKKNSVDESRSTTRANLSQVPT

[2] = target: odr-10 non-functional mutant H110Y (Caenorhabditis elegans, UniProt Q18807, H110Y); conditions: 500 μM diacetyl; wells H11 and H12
[3] = target: T1, ODR-10; test: Multiwell (48/96 well) LacZ/ONPG assay of yeast screening strain transformed with odr-10; conditions: for Abs414 reading after 3 hours: 500 μM diacetyl
Experimental: The method was as follows ([…] from Brouchon-[…] et al., 2003): • 1 mL of Saccharomyces cerevisiae Minimal Medium (SCMM)-His, -Leu was inoculated with a single colony of the screening strain transformed with odr-10 (lacZ/[…]^31 gpa1^-) at Abs600 nm=1, in a 96-well deep well plate. • The plate was incubated overnight (18 hours) at 30° C. with shaking at 900 rpm. • The culture from the well was diluted into fresh wells (96 or 48 well plate) to a final volume of 1 mL at the following yeast cell optical densities: • 1. Abs600=1 • 2. Abs600=0.5 • 3. Abs600=0.5 • Wells 1 and 2 above were induced with 500 μM of a diacetyl solution (made up fresh and kept on ice); 1M: 87 μL diacetyl+913 μL water; then diluted 1/10 in water and 5 μL added to 1 mL cells for a final concentration of 500 μM). All wells were incubated for 30° C. for 18 hours with shaking at 900 rpm. • The plate was centrifuged to pellet the cells, the supernatant was aspirated off and discarded and the pellet was resuspended in 120 μL of lysis buffer (100 mM sodium phosphate buffer, pH 7.5 (consisting of 82 mM Na2HPO4 and […] with 0.1% (w/v) sodium dodecyl sulfate). Initial absorbance was read at 414 nm in a plate-reading spectrophotometer. • The plate was shaken at 900 rpm for 10 min at 30° C. • Thirty microlitres of 2.5 mM o-nitrophenyl-β-D-galactopyranoside (ONPG) (10 mg ONPG dissolved in 130 μL dimethyl formamide is 250 mM, then dilute 1/100 in water for final concentration, which is 2.5 mM) was added and the plate was incubated at room temperature for between 5 minutes and 3 hours. • Eighty microlitres of a 1M Na2CO3 solution was added and the absorbance was read in a plate-based spectrophotometer, either at 414 nm or a spectrum was recorded for each well over the visible region. The assay was repeated with a range of different dilutions (1⁄4 to 1/20) of the starting yeast culture in the wells of either 96 or 48 deep-well plates (the former can contain a total of 2 mL and the latter 5 mL.) Normally dilutions required to reach Abs600 nm=1 are in the range of 1⁄2 to 1⁄4. This experiment probed a set of higher dilutions. Incubation was for 17 hours at 30° C. and 900 rpm shaking. […] In 96 well plates, the higher cell dilutions consistently gave the better diacetyl-induced to control ratios (FIG. 11). The best ratio was in the case of the 96-well plate and the 1/20 dilution where the diacetyl-induced absorbance was 0.481 and the uninduced control was 0.079.

[4] = target: T1, ODR-10; test: GFP reporter assay in Cyb-KAGMM yeast expressing ODR-10
[5] = target: T1, ODR-10; test: 96-well LacZ/ONPG screen, positive control odr-10; conditions: 500 μM diacetyl

In the case of CC(=O)C(C)=O [diacetyl, butane-2,3-dione], the “maximum increase in signal over background” value ([1]; 700 μM diacetyl, LacZ driven by FUS-2 (so in the source), FIG. 8) is reported as “approximately 6 fold”, the “maximum ligand-induced increase in signal” value ([1]; 1 mM diacetyl, LacZ under FUS-1 promoter, FIG. 9) is reported as “approximately 2.5 fold” and the “response (spectra)” value [2] is reported as “did not show any response”. The “Abs414 reading after 3 hours” value ([3]; Abs600 nm=0.5 starting condition) was 0.521, the “Abs414 reading after 3 hours” value ([3]; Abs600 nm=1 starting condition) was 0.247 and the “diacetyl-induced absorbance (Abs414 nm)” value ([3]; 96-well plate, 1/20 dilution of starting culture, 17 hours incubation) was 0.481. The “induction of lacZ” value ([3]; dilutions 1/4 to 1/20 of starting culture in 96 or 48 deep-well plates) was “detected in all the conditions except the 1/20 cell dilution in the 48 well plate”, the “GFP fluorescence emission relative to uninduced” value ([4]; 50 μM diacetyl, pGK:Odr10 with Fig2:GFP (FIG. 5 panel C)) was “below the uninduced condition” and the “difference between the peak GFP responses with ODR-10 expression and for the vector control” value ([4]; 500 μM diacetyl, best case (FIG. 5a, pGK:Odr10 with Fus1:GFP), 7 hrs induction) was “less than a twofold difference”. For the same compound, the “response (yellow colour, spectral peak at 420 nm)” value ([5]; clone in well H9) was “responds” and the “response (colour or spectra)” value ([5]; clone in well H10) was “did not show any response”.
